Measured values reported in patent US12004538B2, “Method for improving meat quality” (CAN TECHNOLOGIES, INC., priority 2017, dated 2024).
Where two headings read alike, the source gives them in different places.

Tests used:
[1] = tested on: longissimus muscle; details: for L* day 2 / a* day 2 / b* day 2 / pH* day 2: 24 hours after slaughter; for L* day 1 / a* day 1 / b* day 1: day of slaughter
Experimental: (§1) The trial was conducted in the grower-finisher unit 1 and 2 of Cargill Innovation Center Velddriel, The Netherlands. Pigs were allocated with 64 days of age. A randomized block design was used using 6 treatments divided over 48 pens by using 8 weight blocks in total. A pen was the experimental unit. Each pen contained 4 animals. Barrows and gilts were equally distributed among treatments. The experiment consisted of a 3×2 factorial design with three different levels of Bolifor™ CNFR (calcium nitrate) and with and without heat stress, with 8 replications per treatment (Table 1). During phase 1 (day 0 to day 24, i.e., d0-24) a common diet was fed. In phase 2 (d24-56) and phase 3 (d56-101) pigs were fed one of the 6 experimental diets (pellet form).
At slaughter, meat samples were taken to measure meat color. Color was evaluated at the longissimus muscle for L* (lightness), a* (redness), and b* (yellowness) values using a Minolta spectrophotometer. The first measurement was taken 3 hours postmortem and the second measurement 24 hours after first measurement. At the time of the 2nd color measurement, pH was also measured.

[2] = young piglets
[3] = cited from earlier work
[4] = Experimental: as §1
Feed intake and body weight were measured at day 0, 24, 39, 59, 83 and 101. Ultrasound measurements were made at day 24, 59 and 101. To get more insight on metabolic defenses when pigs are submitted to heat stress, urine samples were taken at experimental day 84 (105 kg average BW) in the morning from the control animals (16 animals) in the heat stress group and the non-heat stressed group to measure pH, and calcium and phosphorus content. The pH was measured right after collection. During the first three weeks of heat stress skin temperature was measured daily with an infrared device (Testo 845). From 3 weeks onwards, skin temperature was measured weekly.
For comparison of the different treatments, the parameters ADG, ADFI and Feed conversion ratio (FRC) (all normally distributed) were subjected to Mixed Model analysis, using SAS JMP (Version 9.0, SAS Institute Inc., Cary, NC, 2008) according to the following statistical model: Yijk=μ+αi+βj+(αβ)ij+Sexk+δi1+BW24m+εijklm Where, • μ=population mean; • αi=main effect of temperature/room i (A), i=1, 2; • βj=main effect of calcium nitrate level j (B), j=1, 2, 3; • Sex1=random effect of sex, 1=barrow, gilt; • BW24m=BW at day 24 (covariable) • (αβ)ij is the interaction effect of A and B; for each j and for each i • δik˜Niid(0, s^2a) is the whole plot (block) error, k=1, 2, . . . , 8; • εijk˜Niid(0, s^2e) is the sub plot (pen) error, k=1, 2, . . . , 8. Linear and quadratic contrast for calcium nitrate level was tested. Differences between treatment means were assumed to be significant based on the probability of P<0.05 (Student t-test); unless other probability value is stated.

[5] = for Carcass yield: HCW divided by live weight
Experimental: as §1
On day 83 of the trial one pig per pen was removed and transported to a commercial processing plant. On day 102, pigs were weighed and transported to a commercial processing plant (Compaxo, Zevenaar, The Netherlands). Each pig received an ear tag according to pen number to allow for data retrieval by pen and carcass data collection at the packing plant. Hot carcass weights (HCW) were measured immediately after evisceration and each carcass was evaluated for backfat, loin depth, and lean percentage. Fat depth and loin depth were measured with an optical probe inserted between 3rd and 4th last rib. Lean percentage was provided from the packing plant by using a proprietary equation. Percentage yield was calculated by dividing HCW by live weight obtained before transport to the packing plant.
Temperature, humidity and ventilation were automatically controlled. During phase 1 (from experimental day 0 until 24) pigs were not submitted to heat stress conditions. From experimental day 32 onwards pigs in Unit 2 were exposed to heat stress conditions (total period length of 66 days). During this period of heat stress the temperature was raised to 30° C. (from 8 AM-6 PM) and decreased to 26° C. from 6 PM-8 AM. During the heat stress period the relative humidity was kept at 80% in Unit 2 and the minimum ventilation was adjusted according to the body weight of the pigs.

[6] = heat stress, nitrate 0.063% in diet
[7] = heat stress, nitrate 0.1% in diet
[8] = normal temperature, nitrate 0.063% in diet
[9] = normal temperature, nitrate 0.1% in diet
[10] = grower-finisher pigs, nitrate in the water
[11] = 0.063% nitrate inclusion in feed

O=[N+]([O-])[O-].O=[N+]([O-])[O-].[Ca+2] [Nitrate, calcium nitrate]
L* day 2 [1, 6]: 55.5 | a* day 2 [1, 6]: 9.5 | b* day 2 [1, 6]: −0.4 | pH* day 2 [1, 6]: 5.36 | L* day 2 [1, 7]: 55.1 | a* day 2 [1, 7]: 9.8 | b* day 2 [1, 7]: −0.7 | pH* day 2 [1, 7]: 5.35 | L* day 2 [1, 8]: 53.5 | a* day 2 [1, 8]: 9.8 | b* day 2 [1, 8]: −1.0 | pH* day 2 [1, 8]: 5.60 | L* day 2 [1, 9]: 53.7 | a* day 2 [1, 9]: 9.9 | b* day 2 [1, 9]: −0.9 | pH* day 2 [1, 9]: 5.58 | L* day 1 [1, 6]: 43.1 | a* day 1 [1, 6]: 7.0 | b* day 1 [1, 6]: −1.5 | L* day 1 [1, 7]: 42.5 | a* day 1 [1, 7]: 7.1 | b* day 1 [1, 7]: −1.6 | L* day 1 [1, 8]: 42.5 | a* day 1 [1, 8]: 7.3 | b* day 1 [1, 8]: −1.5 | L* day 1 [1, 9]: 43.0 | a* day 1 [1, 9]: 7.2 | b* day 1 [1, 9]: −1.4 | parameter a* at day 2 with increasing level of calcium nitrate in the diet ([1]; main effect of nitrate level, P=0.012): linearly increased | pH values in longissimus dorsi, main effect of nitrate ([1]; pig, in vivo): no significant effects | adverse effects on performance ([2]; feed dose titration 0.2, 0.4, 0.6, 0.8 and 1.0% calcium nitrate): no adverse effects | met-hemoglobin ([2]; highest level of calcium nitrate inclusion): stayed well within levels considered as safe | effect on hemoglobin or met-hemoglobin in the blood [3, 10]: no effect | effect on meat and liver NO content and on meat color, smell or taste [3, 10]: no effect | level of nitrate in swine feed that can be dosed safely ([3]; swine feed): ≥ 0.1% | effect of calcium nitrate level on weight ([4]; day 83 and 101, P<0.05): quadratic effect | FCR ([4]; overall period (24-101 days), nitrate level 1 (0.063%), heat stress conditions, tendency P=0.09): better FCR | FCR with increasing level of calcium nitrate in the diet ([4]; phase 2 (d24-59) and whole trial (d24-101), P<0.05): linearly increased | effect of calcium nitrate level on ADG ([4]; phase 3 (d59-101), P<0.10): tended to show a quadratic effect | effect of calcium nitrate level on ADFI ([4]; phase 3 and whole trial, P<0.05): quadratic effect | effect of calcium nitrate level on ADG ([4]; whole trial (d24-101), P<0.05): quadratic effect | carcass yield, rank among treatments [5, 11]: highest | slaughter weight, rank among treatments [5, 11]: lowest slaughter weight | effect of nitrate level on carcass yield ([5]; P<0.05): quadratic effect | effect of nitrate level on full weight ([5]; P<0.05): quadratic effect | effect of nitrate level on slaughter weight ([5]; P<0.05): quadratic effect | Backfat [5, 6]: 18.7 mm | Carcass weight [5, 6]: 100.2 kg | Lean meat [5, 6]: 56.1% | Muscle [5, 6]: 68.6 mm | Slaughter weight [5, 6]: 122.8 kg | Weight full [5, 6]: 125.0 kg | Carcass yield [5, 6]: 81.7% | Backfat [5, 7]: 18.9 mm | Carcass weight [5, 7]: 101.2 kg | Lean meat [5, 7]: 55.9% | Muscle [5, 7]: 68.5 mm | Slaughter weight [5, 7]: 124.9 kg | Weight full [5, 7]: 127.6 kg | Carcass yield [5, 7]: 81.2% | carcass weight compared to the other treatments ([5]; normal temperature, 0.063%): higher carcass weight | Backfat [5, 8]: 20.3 mm | Carcass weight [5, 8]: 105.1 kg | Lean meat [5, 8]: 55.0% | Muscle [5, 8]: 67.8 mm | Slaughter weight [5, 8]: 126.0 kg | Weight full [5, 8]: 128.2 kg | Carcass yield [5, 8]: 83.6% | Backfat [5, 9]: 16.8 mm | Carcass weight [5, 9]: 99.5 kg | Lean meat [5, 9]: 57.4% | Muscle [5, 9]: 69.3 mm | Slaughter weight [5, 9]: 127.3 kg | Weight full [5, 9]: 129.6 kg | Carcass yield [5, 9]: 78.3%
